Experiments:
Test in all cases: Test B pre-/postemergence plant response
Format in all cases: in vivo
[1] = system: common (oilseed) sunflower (Helianthus annuus); settings: Preemergence
Summary of the method: (§1)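 Seeds were sown and sprayed preemergence, while plants at 2 to 18 cm (1- to 4-leaf stage) got postemergence sprays. Compounds were formulated in a non-phytotoxic solvent mixture with surfactant. After 13 to 15 days in a greenhouse, injury was rated visually against untreated controls, 0 (no effect) to 100 (complete control).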

[2] = system: pigweed (Amaranthus retroflexus)
Summary of the method: as §1

[3] = system: giant foxtail (Setaria faberii)
Summary of the method: as §1

[4] = system: catchweed bedstraw (Galium aparine); settings: Preemergence
Summary of the method: as §1

[5] = system: downy bromegrass (Bromus tectorum); settings: for Bromegrass, Downy plant response rating: 8 g ai/ha
Summary of the method: as §1

kochia (Kochia scoparia) = settings: for Kochia plant response rating: postemergence, 0-100 scale
Summary of the method: as §1

[6] = system: blackgrass (Alopecurus myosuroides); settings: for Blackgrass plant response rating: 8 g ai/ha
Summary of the method: as §1

[7] = system: lambsquarters (Chenopodium album)
Summary of the method: as §1

corn (Zea mays) = system: corn (Zea mays)
Summary of the method: as §1

[8] = system: velvetleaf (Abutilon theophrasti)
Summary of the method: as §1

[9] = system: woolly cupgrass (Eriochloa villosa); settings: for Cupgrass, Woolly plant response rating: 8 g ai/ha
Summary of the method: as §1

wild oat (Avena fatua) = system: wild oat (Avena fatua)
Summary of the method: as §1

[10] = system: common ragweed (Ambrosia elation)
Summary of the method: as §1

[11] = system: yellow nutsedge (Cyperus esculentus)
Summary of the method: as §1

[12] = 16 g ai/ha, scale 0 to 100 (0 no effect, 100 complete control)
[13] = 31 g ai/ha, 0 to 100 scale, 0 no effect, 100 complete control
[14] = Postemergence, 16 g ai/ha, scale 0 to 100
[15] = Postemergence, 31 g ai/ha, scale 0 to 100, 0 no effect, 100 complete control
[16] = Postemergence, 62 g ai/ha, scale 0 to 100
[17] = Postemergence, 125 g ai/ha, scale 0 to 100
[18] = Preemergence, 16 g ai/ha, scale 0 to 100 (0 no effect, 100 complete control)
[19] = Preemergence, 31 g ai/ha, 0 to 100 scale, 0 no effect, 100 complete control
[20] = Preemergence, 62 g ai/ha, scale 0 to 100
[21] = Preemergence, 125 g ai/ha, scale 0 to 100
[22] = 31 g ai/ha, scale 0 to 100 (0 no effect, 100 complete control)
[23] = 62 g ai/ha, 0 to 100 scale, 0 no effect, 100 complete control
[24] = 8 g ai/ha, postemergence, 0-100 scale
[25] = 16 g ai/ha, postemergence, 0-100 scale
[26] = Postemergence, 31 g ai/ha, scale 0 to 100
[27] = Postemergence, 62 g ai/ha, scale 0 to 100, 0 no effect, 100 complete control
[28] = Preemergence, 31 g ai/ha, scale 0 to 100 (0 no effect, 100 complete control)
[29] = Preemergence, 62 g ai/ha, 0 to 100 scale, 0 no effect, 100 complete control
[30] = Preemergence, 8 g ai/ha, scale 0 to 100
[31] = Preemergence, 16 g ai/ha, scale 0 to 100

CCc1cc(-c2ccc(C(F)(F)F)cc2)nn1-c1c(OC(=O)OC(C)C)cnn(C)c1=O [Compound 12]
75: Plant response rating, Bromegrass, Downy [5, 21] | Plant response rating, Corn (corn (Zea mays); [19])
70: Plant response rating, Bromegrass, Downy [5, 20] | Plant response rating, Corn (corn (Zea mays); [18])
0: Plant response rating, Sunflower [1, 12] | Plant response rating, Sunflower [1, 13] | Plant response rating, Sunflower ([1]; 62 g ai/ha, scale 0 to 100) | Plant response rating, Sunflower ([1]; 125 g ai/ha, scale 0 to 100) | Plant response rating, Pigweed [2, 14] | Plant response rating, Pigweed [2, 15] | Plant response rating, Galium [4, 12] | Plant response rating, Galium [4, 13] | Plant response rating, Galium ([4]; 62 g ai/ha, scale 0 to 100) | Plant response rating, Galium ([4]; 125 g ai/ha, scale 0 to 100) | Plant response rating, Bromegrass, Downy [5, 18] | Plant response rating, Bromegrass, Downy [5, 19] | Plant response rating, Kochia (kochia (Kochia scoparia); [14]) | Plant response rating, Kochia (kochia (Kochia scoparia); [15]) | Plant response rating, Kochia (kochia (Kochia scoparia); [16]) | Plant response rating, Kochia (kochia (Kochia scoparia); [17]) | Plant response rating, Kochia (kochia (Kochia scoparia); [18]) | Plant response rating, Kochia (kochia (Kochia scoparia); [19]) | Plant response rating, Kochia (kochia (Kochia scoparia); [20]) | Plant response rating, Kochia (kochia (Kochia scoparia); [21]) | Plant response rating, Lambsquarters [7, 14] | Plant response rating, Lambsquarters [7, 15] | Plant response rating, Lambsquarters [7, 16] | Plant response rating, Lambsquarters [7, 18] | Plant response rating, Lambsquarters [7, 19] | Plant response rating, Lambsquarters [7, 21] | Plant response rating, Velvetleaf [8, 14] | Plant response rating, Velvetleaf [8, 15] | Plant response rating, Velvetleaf [8, 16] | Plant response rating, Velvetleaf [8, 18] | Plant response rating, Velvetleaf [8, 19] | Plant response rating, Velvetleaf [8, 20] | Plant response rating, Velvetleaf [8, 21] | Plant response rating, Ragweed [10, 14] | Plant response rating, Ragweed [10, 15] | Plant response rating, Ragweed [10, 16] | Plant response rating, Ragweed [10, 17] | Plant response rating, Ragweed [10, 18] | Plant response rating, Ragweed [10, 19] | Plant response rating, Ragweed [10, 20] | Plant response rating, Ragweed [10, 21] | Plant response rating, Nutsedge, Yellow [11, 14] | Plant response rating, Nutsedge, Yellow [11, 15] | Plant response rating, Nutsedge, Yellow [11, 16] | Plant response rating, Nutsedge, Yellow [11, 17] | Plant response rating, Nutsedge, Yellow [11, 18] | Plant response rating, Nutsedge, Yellow [11, 19] | Plant response rating, Nutsedge, Yellow [11, 20] | Plant response rating, Nutsedge, Yellow [11, 21]
50: Plant response rating, Pigweed [2, 17]
30: Plant response rating, Velvetleaf [8, 17]
5: Plant response rating, Pigweed [2, 16]
40: Plant response rating, Lambsquarters [7, 17]
90: Plant response rating, Oat, Wild (wild oat (Avena fatua); [19])
60: Plant response rating, Oat, Wild (wild oat (Avena fatua); [18])
95: Plant response rating, Corn (corn (Zea mays); [20]) | Plant response rating, Corn (corn (Zea mays); [21]) | Plant response rating, Oat, Wild (wild oat (Avena fatua); [20])
100: Plant response rating, Foxtail, Giant [3, 14] | Plant response rating, Foxtail, Giant [3, 15] | Plant response rating, Foxtail, Giant [3, 16] | Plant response rating, Foxtail, Giant [3, 17] | Plant response rating, Foxtail, Giant [3, 18] | Plant response rating, Foxtail, Giant [3, 19] | Plant response rating, Foxtail, Giant [3, 20] | Plant response rating, Foxtail, Giant [3, 21] | Plant response rating, Blackgrass [6, 14] | Plant response rating, Blackgrass [6, 15] | Plant response rating, Blackgrass [6, 16] | Plant response rating, Blackgrass [6, 17] | Plant response rating, Blackgrass [6, 19] | Plant response rating, Blackgrass [6, 20] | Plant response rating, Blackgrass [6, 21] | Plant response rating, Corn (corn (Zea mays); [14]) | Plant response rating, Corn (corn (Zea mays); [15]) | Plant response rating, Corn (corn (Zea mays); [16]) | Plant response rating, Corn (corn (Zea mays); [17]) | Plant response rating, Cupgrass, Woolly [9, 14] | Plant response rating, Cupgrass, Woolly [9, 15] | Plant response rating, Cupgrass, Woolly [9, 16] | Plant response rating, Cupgrass, Woolly [9, 17] | Plant response rating, Cupgrass, Woolly [9, 21] | Plant response rating, Oat, Wild (wild oat (Avena fatua); [14]) | Plant response rating, Oat, Wild (wild oat (Avena fatua); [15]) | Plant response rating, Oat, Wild (wild oat (Avena fatua); [16]) | Plant response rating, Oat, Wild (wild oat (Avena fatua); [17])
85: Plant response rating, Bromegrass, Downy [5, 14] | Plant response rating, Bromegrass, Downy [5, 15] | Plant response rating, Bromegrass, Downy [5, 16] | Plant response rating, Cupgrass, Woolly [9, 19]
98: Plant response rating, Blackgrass [6, 18] | Plant response rating, Cupgrass, Woolly [9, 20] | Plant response rating, Oat, Wild (wild oat (Avena fatua); [21])
80: Plant response rating, Cupgrass, Woolly [9, 18]

CCCc1cc(-c2ccc(C(F)(F)F)cc2)nn1-c1c(O)cnn(C)c1=O [Compound 72]
60: Blackgrass plant response rating ([6]; Preemergence, scale 0 to 100) | Oat, Wild plant response rating (wild oat (Avena fatua); [30])
100: Plant response rating, Foxtail, Giant [3, 14] | Plant response rating, Foxtail, Giant [3, 26] | Plant response rating, Foxtail, Giant [3, 27] | Plant response rating, Foxtail, Giant [3, 28] | Plant response rating, Foxtail, Giant [3, 29] | Plant response rating, Blackgrass [6, 27] | Plant response rating, Blackgrass [6, 29] | Plant response rating, Corn (corn (Zea mays); [27]) | Plant response rating, Corn (corn (Zea mays); [29]) | Plant response rating, Cupgrass, Woolly [9, 29] | Oat, Wild plant response rating (wild oat (Avena fatua); [24]) | Oat, Wild plant response rating (wild oat (Avena fatua); [25]) | Plant response rating, Oat, Wild (wild oat (Avena fatua); [26]) | Plant response rating, Oat, Wild (wild oat (Avena fatua); [27])
98: Plant response rating, Blackgrass [6, 26] | Plant response rating, Oat, Wild (wild oat (Avena fatua); [29])
85: Foxtail, Giant plant response rating [3, 31] | Plant response rating, Corn (corn (Zea mays); [28]) | Plant response rating, Cupgrass, Woolly [9, 28]
10: Plant response rating, Ragweed [10, 29]
95: Foxtail, Giant plant response rating [3, 24] | Plant response rating, Bromegrass, Downy [5, 29] | Plant response rating, Blackgrass [6, 14] | Plant response rating, Blackgrass [6, 28] | Plant response rating, Oat, Wild (wild oat (Avena fatua); [28])
90: Plant response rating, Blackgrass [6, 18] | Plant response rating, Corn (corn (Zea mays); [14]) | Plant response rating, Corn (corn (Zea mays); [26]) | Plant response rating, Cupgrass, Woolly [9, 26] | Plant response rating, Cupgrass, Woolly [9, 27]
0: Plant response rating, Sunflower [1, 22] | Plant response rating, Sunflower [1, 23] | Sunflower plant response rating ([1]; 8 g ai/ha, scale 0 to 100) | Sunflower plant response rating ([1]; 16 g ai/ha, scale 0 to 100) | Pigweed plant response rating [2, 24] | Pigweed plant response rating [2, 25] | Plant response rating, Pigweed [2, 26] | Plant response rating, Pigweed [2, 27] | Plant response rating, Pigweed [2, 28] | Pigweed plant response rating [2, 30] | Pigweed plant response rating [2, 31] | Plant response rating, Galium [4, 22] | Plant response rating, Galium [4, 23] | Galium plant response rating ([4]; 8 g ai/ha, scale 0 to 100) | Galium plant response rating ([4]; 16 g ai/ha, scale 0 to 100) | Bromegrass, Downy plant response rating ([5]; Preemergence, scale 0 to 100) | Kochia plant response rating (kochia (Kochia scoparia); 8 g ai/ha) | Kochia plant response rating (kochia (Kochia scoparia); 16 g ai/ha) | Plant response rating, Kochia (kochia (Kochia scoparia); [26]) | Plant response rating, Kochia (kochia (Kochia scoparia); [27]) | Lambsquarters plant response rating [7, 24] | Lambsquarters plant response rating [7, 25] | Plant response rating, Lambsquarters [7, 26] | Plant response rating, Lambsquarters [7, 27] | Lambsquarters plant response rating [7, 30] | Lambsquarters plant response rating [7, 31] | Velvetleaf plant response rating [8, 24] | Velvetleaf plant response rating [8, 25] | Plant response rating, Velvetleaf [8, 26] | Plant response rating, Velvetleaf [8, 27] | Plant response rating, Velvetleaf [8, 28] | Plant response rating, Velvetleaf [8, 29] | Velvetleaf plant response rating [8, 30] | Velvetleaf plant response rating [8, 31] | Ragweed plant response rating [10, 24] | Ragweed plant response rating [10, 25] | Plant response rating, Ragweed [10, 26] | Plant response rating, Ragweed [10, 27] | Plant response rating, Ragweed [10, 28] | Ragweed plant response rating [10, 30] | Ragweed plant response rating [10, 31] | Nutsedge, Yellow plant response rating [11, 24] | Nutsedge, Yellow plant response rating [11, 25] | Plant response rating, Nutsedge, Yellow [11, 26] | Plant response rating, Nutsedge, Yellow [11, 27] | Plant response rating, Nutsedge, Yellow [11, 28] | Plant response rating, Nutsedge, Yellow [11, 29] | Nutsedge, Yellow plant response rating [11, 30] | Nutsedge, Yellow plant response rating [11, 31]
50: Plant response rating, Pigweed [2, 29] | Plant response rating, Bromegrass, Downy [5, 28] | Corn plant response rating (corn (Zea mays); [24])
40: Plant response rating, Lambsquarters [7, 29]
30: Plant response rating, Bromegrass, Downy [5, 14] | Plant response rating, Bromegrass, Downy [5, 26] | Plant response rating, Bromegrass, Downy [5, 27] | Plant response rating, Bromegrass, Downy [5, 18] | Plant response rating, Lambsquarters [7, 28]
55: Cupgrass, Woolly plant response rating ([9]; postemergence, 0-100 scale)
20: Bromegrass, Downy plant response rating ([5]; postemergence, 0-100 scale)
80: Blackgrass plant response rating ([6]; postemergence, 0-100 scale) | Corn plant response rating (corn (Zea mays); [31]) | Plant response rating, Cupgrass, Woolly [9, 14] | Oat, Wild plant response rating (wild oat (Avena fatua); [31])
70: Foxtail, Giant plant response rating [3, 30] | Corn plant response rating (corn (Zea mays); [30]) | Cupgrass, Woolly plant response rating ([9]; Preemergence, scale 0 to 100)

Reference: US20100267561A1, “HERBICIDAL PYRIDAZINONE DERIVATIVES” (priority 2007, published 2010)
